Three molecules from ChEMBL document CHEMBL4308894, “Synthesis and evaluation of biological activity for dual-acting antibiotics on the basis of azithromycin and glycopeptides” (Bioorg Med Chem Lett, 2019) can be followed below.

For assay [1], the system named is Staphylococcus aureus. In words: Antibacterial activity against Staphylococcus aureus ATCC 25923 by micro dilution method. The format is functional.
Assay [2] deals with Staphylococcus epidermidis. Put plainly: Antibacterial activity against Staphylococcus epidermidis isolate 533 by micro dilution method. The format is functional.
Assay [3] deals with Staphylococcus aureus. Put plainly: Antibacterial activity against Staphylococcus aureus isolate 10 by micro dilution method. The format is functional.
Assay [4] deals with Staphylococcus aureus. In words: Antibacterial activity against Staphylococcus aureus isolate 3797 by micro dilution method. The format is functional.
Assay [5] concerns Staphylococcus aureus. In words: Antibacterial activity against Staphylococcus aureus isolate 3798 by micro dilution method. Format: functional.
Assay [6] has as its system Staphylococcus aureus. Put plainly: Antibacterial activity against Staphylococcus aureus isolate 1025 by micro dilution method. Format: functional.
Assay [7] deals with Enterococcus faecium. Put plainly: Antibacterial activity against Enterococcus faecium isolate 568 by micro dilution method. Format: functional.
Assay [8] has as its system Enterococcus faecium. In words: Antibacterial activity against Enterococcus faecium isolate 569 by micro dilution method. The format is functional.
The next assay relates to Enterococcus faecalis. Put plainly: Antibacterial activity against Enterococcus faecalis isolate 560 by micro dilution method. Format: functional.
Another assay deals with Streptococcus pneumoniae. Put plainly: Antibacterial activity against Streptococcus pneumoniae ATCC 49619 by micro dilution method. Format: functional.
The test system of the next assay is Enterococcus gallinarum. Put plainly: Antibacterial activity against Streptococcus gallinarum ATCC 35038 by micro dilution method. The format is functional.
The next assay has as its system Streptococcus agalactiae. Put plainly: Antibacterial activity against Streptococcus agalactiae isolate 52 by micro dilution method. The format is functional.
For assay [9], the system named is Escherichia coli. Put plainly: Antibacterial activity against Escherichia coli ATCC 25922 by micro dilution method. Format: functional.
For the next assay, the system named is Salmonella typhimurium. In words: Antibacterial activity against Salmonella choleraesuis ATCC 14028 by micro dilution method. Format: functional, Salmonella enterica subsp. enterica serovar Typhimurium. The following applies: Salmonella enterica.
The subject of another assay is Klebsiella pneumoniae. In words: Antibacterial activity against Klebsiella pneumoniae ATCC 13883 by micro dilution method. The format is functional.
In assay [10] the test system is Escherichia coli. In words: Induction of translation arrest in tolC-deficient Escherichia coli harboring pRFPCER-TrpL2A assessed as increase in pRFPCER-TrpL2A reporter activity at 10 mg/ml after overnight incubation by dual fluorescent-reporter gene assay. The format is functional, organism-based.

Converted amounts (≈) assume the structure as drawn. The source made the active and inactive calls. The calls are words filed in the database; no cut-off is given here.

Broadly, the MIC is the lowest concentration that inhibits growth of the organism. The low end stands for greater potency, the high end for weaker potency.

As for `CC[C@H]1OC(=O)[C@H](C)[C@@H](O[C@H]2C[C@@](C)(OC)[C@@H](OC(=O)NCCCNC(=O)[C@H]3NC(=O)[C@H]4NC(=O)[C@H](NC(=O)[C@@H]5NC(=O)[C@H](CC(N)=O)NC(=O)[C@H](NC(=O)[C@@H](CC(C)C)NC)[C@H](O)c6ccc(c(Cl)c6)Oc6cc5cc(c6O[C@@H]5O[C@H](CO)[C@@H](O)[C@H](O)[C@H]5O[C@H]5C[C@](C)(N)[C@H](O)[C@H](C)O5)Oc5ccc(cc5Cl)[C@H]4O)c4ccc(O)c(c4)-c4c(O)cc(O)cc43)[C@H](C)O2)[C@H](C)[C@@H](O[C@@H]2O[C@H](C)C[C@H](N(C)C)[C@H]2O)[C@](C)(O)C[C@@H](C)CN(C)[C@H](C)[C@H]2OC(=O)O[C@]21C`, the MIC with Staphylococcus aureus [1] was 2 µg/mL (≈ 0.867 µM); in assay [2], 2 µg/mL (≈ 0.867 µM); in the assay on Staphylococcus aureus [3] it was 1 µg/mL (≈ 0.434 µM); with Staphylococcus aureus [4] it was 4 µg/mL (≈ 1.73 µM); against Staphylococcus aureus [5] it was > 32 µg/mL; against Staphylococcus aureus [6], > 32 µg/mL. Also, the MIC against Enterococcus faecium [7] is 1 µg/mL (≈ 0.434 µM); in the assay with Enterococcus faecium [8], > 32 µg/mL; in the assay with Enterococcus faecalis, 32 µg/mL (≈ 13.9 µM); in the assay on Streptococcus pneumoniae, 1 µg/mL (≈ 0.434 µM); in the assay on Enterococcus gallinarum it was 4 µg/mL (≈ 1.73 µM); in the assay on Streptococcus agalactiae, 32 µg/mL (≈ 13.9 µM). The minimum inhibitory concentration (MIC) in the assay with Escherichia coli [9], against Salmonella typhimurium and against Klebsiella pneumoniae was > 32 µg/mL in each case. Further, the outcome in the assay on Escherichia coli [10] was inactive.

`CC[C@H]1OC(=O)[C@H](C)[C@@H](O[C@H]2C[C@@](C)(OC)[C@@H](O)[C@H](C)O2)[C@H](C)[C@@H](O[C@@H]2O[C@H](C)C[C@H](N(C)C)[C@H]2O)[C@](C)(O)C[C@@H](C)C(=O)[C@H](C)[C@@H](O)[C@]1(C)O`: the result with Escherichia coli [10] was Active.

With `CC[C@H]1OC(=O)[C@H](C)[C@@H](O[C@H]2C[C@@](C)(OC)[C@@H](OC(=O)NCCNC(=O)[C@H]3NC(=O)[C@H]4NC(=O)[C@H](NC(=O)[C@@H]5NC(=O)C6NC(=O)[C@@H](Cc7ccc(c(Cl)c7)Oc7cc5cc(c7O)Oc5ccc(cc5Cl)[C@H]4O)NC(=O)[C@H](N)c4ccc(O)c(c4)Oc4cc(O)cc6c4)c4ccc(O)c(c4)-c4c(O)cc(O)cc43)[C@H](C)O2)[C@H](C)[C@@H](O[C@@H]2O[C@H](C)C[C@H](N(C)C)[C@H]2O)[C@](C)(O)C[C@@H](C)CN(C)[C@H](C)[C@H]2OC(=O)O[C@]21C`, the MIC against Staphylococcus aureus [1] was 1 µg/mL (≈ 0.49 µM); in assay [2], 0.5 µg/mL (≈ 0.245 µM); against Staphylococcus aureus [3], 0.06 µg/mL (≈ 0.0294 µM); in the assay with Staphylococcus aureus [4] it was 1 µg/mL (≈ 0.49 µM); in the assay on Staphylococcus aureus [5] it was 32 µg/mL (≈ 15.7 µM); with Staphylococcus aureus [6], > 32 µg/mL. Further, the MIC in the assay on Enterococcus faecium [7] came out at 0.13 µg/mL (≈ 0.0637 µM); against Enterococcus faecium [8], 8 µg/mL (≈ 3.92 µM); in the assay with Enterococcus faecalis it was 16 µg/mL (≈ 7.84 µM); against Streptococcus pneumoniae, 0.5 µg/mL (≈ 0.245 µM); with Enterococcus gallinarum it was 2 µg/mL (≈ 0.979 µM); in the assay with Streptococcus agalactiae, 32 µg/mL (≈ 15.7 µM). Moreover, the minimum inhibitory concentration (MIC) against Escherichia coli [9], in the assay with Salmonella typhimurium and against Klebsiella pneumoniae was > 32 µg/mL throughout. Further, in the assay with Escherichia coli [10], the outcome was inactive.
